Data: BindingDB's records for patent US11878965 (Gilead Sciences, 2024)

Biological target: Protein-arginine deiminase type-4 (Homo sapiens, UniProt Q9UM07)
Assay: In Vitro PAD4 BAEE Biochemical Assay
Description: One hundred nanoliters of test compounds dissolved in DMSO at various concentrations were dispensed into a 384-well black OptiPlate using a Labcyte Echo instrument. Ten microliters of a solution of recombinant PAD4 and calcium chloride diluted in PAD4 assay buffer (50 mM MOPS [3-(N-morpholino) propanesulfonic acid], pH 7.6; 50 mM sodium chloride; 0.05% Tween-20; 2 mM dithiothreitol) was added to the compound-containing plate and was incubated for 30 minutes at 25° C. Ten microliters of a solution of BAEE (Sigma-Aldrich #B4500) diluted in PAD4 assay buffer was then added to start the reaction. Final concentrations were 5 nM PAD4, 2 mM calcium chloride, and 3 mM BAEE. The reaction mixture was incubated at 25° C. for 2 hours and was stopped with the addition of 10 microliters of a solution of 75 mM EDTA (Ethylenediaminetetraacetic acid) in PAD4 assay buffer. Thirty microliters of detection solution (5 mM o-phthalaldehyde, 50 mM MOPS [3-(N-morpholino) propanesulfonic acid], pH 7.6; 50 mM sodium chloride; 0.05% Tween-20; 5 mM dithiothreitol) was then added and the reaction was incubated for 1 hour at 25° C.

Chain of Protein-arginine deiminase type-4 (Q9UM07 whole entry): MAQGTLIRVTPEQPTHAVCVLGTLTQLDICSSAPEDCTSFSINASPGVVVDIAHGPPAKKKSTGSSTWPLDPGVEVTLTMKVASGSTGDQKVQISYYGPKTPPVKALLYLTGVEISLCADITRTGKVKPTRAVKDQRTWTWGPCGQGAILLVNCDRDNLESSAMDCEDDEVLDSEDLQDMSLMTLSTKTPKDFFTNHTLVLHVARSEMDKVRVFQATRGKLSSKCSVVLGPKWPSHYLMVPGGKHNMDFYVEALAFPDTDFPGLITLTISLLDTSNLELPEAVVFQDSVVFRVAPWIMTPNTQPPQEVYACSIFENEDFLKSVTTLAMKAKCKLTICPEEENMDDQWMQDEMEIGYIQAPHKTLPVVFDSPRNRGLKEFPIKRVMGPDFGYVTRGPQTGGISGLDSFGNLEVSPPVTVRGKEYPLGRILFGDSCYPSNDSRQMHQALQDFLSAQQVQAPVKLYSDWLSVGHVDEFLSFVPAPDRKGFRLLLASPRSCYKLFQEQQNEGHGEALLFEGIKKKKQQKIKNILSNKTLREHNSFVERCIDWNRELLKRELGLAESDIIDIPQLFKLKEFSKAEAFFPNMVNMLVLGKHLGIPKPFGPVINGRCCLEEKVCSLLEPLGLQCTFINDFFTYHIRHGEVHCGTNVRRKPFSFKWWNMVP

Molecule `COc1cc(C(=O)N2[C@H]3CC[C@@H]2[C@H](N)C3)cc2nc(-c3cc4ccc([C@@H](C)NC(=O)C56CC(F)(C5)C6)c(F)c4n3CC3CC3)n(C)c12` [US11878965, Example 144] has an IC50 of 229 nM.
`COc1cc(C(=O)N2C[C@H](N)CC[C@@H]2C)cc2nc(-c3cc4ccc(N5C(=O)CC[C@H]5C)nc4n3CC3CC3)n(C)c12` [US11878965, Example 284] gave an IC50 of 1240 nM.
In the case of `COc1cc(C(=O)N2[C@H]3CC[C@@H]2[C@H](N)C3)cc2nc(-c3cc4ccc([C@@H](C)NC(=O)N5CC(F)(F)C5)nc4n3CC3CC3)n(C)c12` [US11878965, Example 238], the IC50 is reported as 28.7 nM.
`COc1cc(C(=O)N2C[C@H](N)CC[C@@H]2C)cc2nc(-c3cc4ccc(-c5cccnc5-c5cccnc5Cl)nc4n3CC3CC3)n(C)c12` [US11878965, Example 258] showed an IC50 of 245 nM.
Molecule `COc1cc(C(=O)N2C[C@H](N)[C@@H]3CC[C@H]2C3)cc2nc(-c3cc4ccc([C@@H](C)NC(=O)c5cccnc5Cl)nc4n3CC3CC3)n(C)c12` [US11878965, Example 302] has an IC50 of 68.4 nM.
